pIC50, pKi: −log10 of the molar value.
Tests used:
Cavia porcellus [1] = experiment: Inhibition of histamine induced bronchoconstriction in male albino Dunkin-Hartley guinea pig model at 1 nmol/kg, IT(Intratracheal) preadministered with compound followed by histamine addition at 5 to 30 mins and measured 1 hrs post compound treatment relative to control; settings: read-out: INH
Cavia porcellus [2] = experiment: Inhibition of acetylcholine induced bronchoconstriction in male albino Dunkin-Hartley guinea pig model at 1 nmol/kg, IT(Intratracheal) preadministered with compound followed by acetylcholine addition at 5 to 30 mins and measured 1 hrs post compound treatment relative to control; settings: read-out: INH
Cavia porcellus [3] = experiment: Inhibition of histamine induced bronchoconstriction in male albino Dunkin-Hartley guinea pig model at 1 nmol/kg, IT(Intratracheal) preadministered with compound followed by histamine addition at 5 to 30 mins and measured 24 hrs post compound treatment relative to control; settings: read-out: INH
Cavia porcellus [4] = experiment: Inhibition of acetylcholine induced bronchoconstriction in male albino Dunkin-Hartley guinea pig model at 1 nmol/kg, IT(Intratracheal) preadministered with compound followed by acetylcholine addition at 5 to 30 mins and measured 24 hrs post compound treatment relative to control; settings: read-out: INH
[5] = Stability in guinea pig lung S9 fraction at 1 uM incubated for 60 mins by LC-MS/MS analysis
Cavia porcellus [6] = species: Cavia porcellus; experiment: animal or person; settings: albino Dunkin-Hartley, 1 h, read-out: INH
Description: Inhibition of acetylcholine induced bronchoconstriction in male albino Dunkin-Hartley guinea pig model at 1 nmol/kg, IT(Intratracheal) preadministered with compound followed by acetylcholine addition at 5 to 30 mins in presence of ICI-118551 and measured 1 hrs post compound treatment relative to control

Cavia porcellus [7] = species: Cavia porcellus; experiment: animal or person; settings: albino Dunkin-Hartley, 24 h, read-out: INH
Description: Inhibition of acetylcholine induced bronchoconstriction in male albino Dunkin-Hartley guinea pig model at 1 nmol/kg, IT(Intratracheal) preadministered with compound followed by acetylcholine addition at 5 to 30 mins in presence of ICI-118551 and measured 24 hrs post compound treatment relative to control

[8] = target: Muscarinic acetylcholine receptor M3 (Cavia porcellus, UniProt Q8VH26); experiment: Antagonist activity at M3 receptor in male albino Dunkin-Hartley guinea pig trachea assessed as inhibition of carbachol-induced smooth muscle contraction in presence of propranolol
Muscarinic acetylcholine receptor M3 (Cavia porcellus, UniProt Q8VH26), sequence (Q8VH26 whole entry): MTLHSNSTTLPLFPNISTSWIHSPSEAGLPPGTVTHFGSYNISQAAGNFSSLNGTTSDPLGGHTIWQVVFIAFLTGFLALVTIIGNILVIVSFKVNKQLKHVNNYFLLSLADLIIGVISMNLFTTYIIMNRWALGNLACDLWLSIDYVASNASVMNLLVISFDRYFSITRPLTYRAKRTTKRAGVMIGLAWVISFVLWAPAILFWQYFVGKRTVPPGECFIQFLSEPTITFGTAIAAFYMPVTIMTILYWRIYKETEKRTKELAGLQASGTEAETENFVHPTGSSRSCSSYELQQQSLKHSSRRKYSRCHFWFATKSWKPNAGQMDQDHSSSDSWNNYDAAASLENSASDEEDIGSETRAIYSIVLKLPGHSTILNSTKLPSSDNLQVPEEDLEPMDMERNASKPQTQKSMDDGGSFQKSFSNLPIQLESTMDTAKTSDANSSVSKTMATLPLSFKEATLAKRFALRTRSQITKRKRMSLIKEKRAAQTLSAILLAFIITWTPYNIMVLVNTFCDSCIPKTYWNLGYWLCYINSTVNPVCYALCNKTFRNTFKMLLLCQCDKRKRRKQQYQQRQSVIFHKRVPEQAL

[9] = target: Beta-2 adrenergic receptor (Cavia porcellus, UniProt Q8K4Z4); experiment: Agonist activity at beta2 adrenoceptor in male albino Dunkin-Hartley guinea pig trachea assessed as inhibition of histamine induced smooth muscle contraction
Beta-2 adrenergic receptor (Cavia porcellus, UniProt Q8K4Z4), sequence (Q8K4Z4 whole entry): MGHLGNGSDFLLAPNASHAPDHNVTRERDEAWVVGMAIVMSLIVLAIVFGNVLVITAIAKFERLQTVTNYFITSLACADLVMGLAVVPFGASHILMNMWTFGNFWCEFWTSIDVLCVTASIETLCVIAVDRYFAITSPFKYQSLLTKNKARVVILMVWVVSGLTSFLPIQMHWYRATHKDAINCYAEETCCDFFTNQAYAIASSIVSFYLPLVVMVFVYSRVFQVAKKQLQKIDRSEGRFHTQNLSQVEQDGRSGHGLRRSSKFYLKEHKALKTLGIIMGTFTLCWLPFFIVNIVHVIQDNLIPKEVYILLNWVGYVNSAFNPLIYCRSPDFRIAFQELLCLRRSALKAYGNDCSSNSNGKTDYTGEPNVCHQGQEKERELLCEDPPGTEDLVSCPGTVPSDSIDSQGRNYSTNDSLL

Trachea = experiment: Inhibition of carbachol-induced smooth muscle contraction in male albino Dunkin-Hartley guinea pig trachea; settings: Cavia porcellus, read-out: pIC50 (converted)
[10] = target: Muscarinic acetylcholine receptor M3 (Homo sapiens, UniProt P20309)
Muscarinic acetylcholine receptor M3 (Homo sapiens, UniProt P20309), sequence (P20309 whole entry): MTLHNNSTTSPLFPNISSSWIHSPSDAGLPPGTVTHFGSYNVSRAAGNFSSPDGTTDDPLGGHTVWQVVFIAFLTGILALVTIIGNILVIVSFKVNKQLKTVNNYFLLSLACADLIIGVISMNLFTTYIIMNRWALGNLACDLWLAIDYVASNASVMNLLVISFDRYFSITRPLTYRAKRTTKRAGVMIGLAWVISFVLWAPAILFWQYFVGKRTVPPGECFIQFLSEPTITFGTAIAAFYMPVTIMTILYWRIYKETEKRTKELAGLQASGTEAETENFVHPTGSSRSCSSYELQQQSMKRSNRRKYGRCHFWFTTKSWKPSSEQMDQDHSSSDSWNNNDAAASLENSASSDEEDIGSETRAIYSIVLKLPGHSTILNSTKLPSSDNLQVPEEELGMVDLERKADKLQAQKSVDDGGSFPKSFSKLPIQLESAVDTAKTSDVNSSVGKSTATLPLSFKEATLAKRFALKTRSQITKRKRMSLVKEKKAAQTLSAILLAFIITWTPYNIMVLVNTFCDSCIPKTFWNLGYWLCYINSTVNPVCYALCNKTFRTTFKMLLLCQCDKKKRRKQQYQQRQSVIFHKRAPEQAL
Description: Displacement of Scopolamine methyl chloride,[N-methyl-3H] from human muscarinic M3 receptor assessed as inhibition constant incubated for 2 hrs by Microbeta scintillation counter

[11] = target: Beta-2 adrenergic receptor (Homo sapiens, UniProt P07550)
Beta-2 adrenergic receptor (Homo sapiens, UniProt P07550), sequence (P07550 whole entry): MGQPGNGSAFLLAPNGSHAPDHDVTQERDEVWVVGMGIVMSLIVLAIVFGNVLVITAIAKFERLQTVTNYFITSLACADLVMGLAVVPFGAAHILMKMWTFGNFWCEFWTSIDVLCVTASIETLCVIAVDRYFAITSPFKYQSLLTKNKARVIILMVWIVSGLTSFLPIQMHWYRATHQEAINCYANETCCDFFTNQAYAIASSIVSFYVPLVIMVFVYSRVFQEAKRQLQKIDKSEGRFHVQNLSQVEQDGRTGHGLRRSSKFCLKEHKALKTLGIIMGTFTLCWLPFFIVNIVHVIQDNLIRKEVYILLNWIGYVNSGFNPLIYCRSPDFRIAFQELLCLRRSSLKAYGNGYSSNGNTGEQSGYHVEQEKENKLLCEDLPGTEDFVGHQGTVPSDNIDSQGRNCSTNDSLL
Description: Displacement of [125I]-Cyanopindolol from human beta2 adrenoceptor assessed as inhibition constant incubated for 1 hrs by Microbeta scintillation counter

in vitro [12] = settings: human, hepatocytes
Description: Metabolic stability in human hepatocytes assessed as clearance measured per 10^6 cells at 1 uM incubated for 90 mins by LC-MS/MS analysis

in vitro [13] = settings: rat, hepatocytes
Description: Metabolic stability in rat hepatocytes assessed as clearance measured per 10^6 cells at 1 uM incubated for 90 mins by LC-MS/MS analysis

in vitro [14] = settings: human, plasma
Description: Stability in human plasma assessed as half-life at 5 uM incubated for 120 mins by LC-MS/MS analysis

in vitro [15] = settings: rat, plasma
Description: Stability in rat plasma assessed as half-life at 5 uM incubated for 120 mins by LC-MS/MS analysis

in vitro [16] = settings: guinea pig, plasma
Description: Stability in guinea pig plasma assessed as half-life at 5 uM incubated for 120 mins by LC-MS/MS analysis

Cavia porcellus [17] = experiment: Inhibition of histamine induced bronchoconstriction in male albino Dunkin-Hartley guinea pig model at 0.3 nmol/kg, IT(Intratracheal) preadministered with compound followed by histamine addition at 5 to 30 mins and measured 1 hrs post compound treatment relative to control; settings: read-out: INH
Cavia porcellus [18] = experiment: Inhibition of acetylcholine induced bronchoconstriction in male albino Dunkin-Hartley guinea pig model at 0.3 nmol/kg, IT(Intratracheal) preadministered with compound followed by acetylcholine addition at 5 to 30 mins and measured 1 hrs post compound treatment relative to control; settings: read-out: INH
Cavia porcellus [19] = experiment: Inhibition of histamine induced bronchoconstriction in male albino Dunkin-Hartley guinea pig model at 0.3 nmol/kg, IT(Intratracheal) preadministered with compound followed by histamine addition at 5 to 30 mins and measured 16 hrs post compound treatment relative to control; settings: read-out: INH
Cavia porcellus [20] = experiment: Inhibition of acetylcholine induced bronchoconstriction in male albino Dunkin-Hartley guinea pig model at 0.3 nmol/kg, IT(Intratracheal) preadministered with compound followed by acetylcholine addition at 5 to 30 mins and measured 16 hrs post compound treatment relative to control; settings: read-out: INH
in vitro [21] = settings: guinea pig, lung S9 fraction
Description: Stability in guinea pig lung S9 fraction assessed as half-life at 1 uM incubated for 60 mins by LC-MS/MS analysis

in vitro [22] = settings: guinea pig, hepatocytes
Description: Metabolic stability in guinea pig hepatocytes assessed as clearance measured per 10^6 cells at 1 uM incubated for 90 mins by LC-MS/MS analysis

in vitro [23] = settings: human, lung S9 fraction
Description: Stability in human lung S9 fraction assessed as half-life at 1 uM incubated for 60 mins by LC-MS/MS analysis

in vitro [24] = settings: rat, lung S9 fraction
Description: Stability in rat lung S9 fraction assessed as half-life at 1 uM incubated for 60 mins by LC-MS/MS analysis

Cavia porcellus [25] = species: Cavia porcellus; experiment: animal or person; settings: albino Dunkin-Hartley, 1 h, read-out: INH; remark: listed apart in the source
Description: Inhibition of acetylcholine induced bronchoconstriction in male albino Dunkin-Hartley guinea pig model at 0.3 nmol/kg, IT(Intratracheal) preadministered with compound followed by acetylcholine addition at 5 to 30 mins in presence of ICI-118551 and measured 1 hrs post compound treatment relative to control

Cavia porcellus [26] = species: Cavia porcellus; experiment: animal or person; settings: albino Dunkin-Hartley, 16 h, read-out: INH
Description: Inhibition of acetylcholine induced bronchoconstriction in male albino Dunkin-Hartley guinea pig model at 0.3 nmol/kg, IT(Intratracheal) preadministered with compound followed by acetylcholine addition at 5 to 30 mins in presence of ICI-118551 and measured 16 hrs post compound treatment relative to control

[27] = target: Voltage-gated inwardly rectifying potassium channel KCNH2 (Homo sapiens, UniProt Q12809)
Description: Inhibition of human ERG by patch clamp assay

[28] = target: Sodium channel protein type 5 subunit alpha (Homo sapiens, UniProt Q14524)
Description: Inhibition of human Nav1.5

[29] = target: Voltage-dependent L-type calcium channel subunit alpha-1C (Homo sapiens, UniProt Q13936)
Voltage-dependent L-type calcium channel subunit alpha-1C, sequence (Q13936 whole entry): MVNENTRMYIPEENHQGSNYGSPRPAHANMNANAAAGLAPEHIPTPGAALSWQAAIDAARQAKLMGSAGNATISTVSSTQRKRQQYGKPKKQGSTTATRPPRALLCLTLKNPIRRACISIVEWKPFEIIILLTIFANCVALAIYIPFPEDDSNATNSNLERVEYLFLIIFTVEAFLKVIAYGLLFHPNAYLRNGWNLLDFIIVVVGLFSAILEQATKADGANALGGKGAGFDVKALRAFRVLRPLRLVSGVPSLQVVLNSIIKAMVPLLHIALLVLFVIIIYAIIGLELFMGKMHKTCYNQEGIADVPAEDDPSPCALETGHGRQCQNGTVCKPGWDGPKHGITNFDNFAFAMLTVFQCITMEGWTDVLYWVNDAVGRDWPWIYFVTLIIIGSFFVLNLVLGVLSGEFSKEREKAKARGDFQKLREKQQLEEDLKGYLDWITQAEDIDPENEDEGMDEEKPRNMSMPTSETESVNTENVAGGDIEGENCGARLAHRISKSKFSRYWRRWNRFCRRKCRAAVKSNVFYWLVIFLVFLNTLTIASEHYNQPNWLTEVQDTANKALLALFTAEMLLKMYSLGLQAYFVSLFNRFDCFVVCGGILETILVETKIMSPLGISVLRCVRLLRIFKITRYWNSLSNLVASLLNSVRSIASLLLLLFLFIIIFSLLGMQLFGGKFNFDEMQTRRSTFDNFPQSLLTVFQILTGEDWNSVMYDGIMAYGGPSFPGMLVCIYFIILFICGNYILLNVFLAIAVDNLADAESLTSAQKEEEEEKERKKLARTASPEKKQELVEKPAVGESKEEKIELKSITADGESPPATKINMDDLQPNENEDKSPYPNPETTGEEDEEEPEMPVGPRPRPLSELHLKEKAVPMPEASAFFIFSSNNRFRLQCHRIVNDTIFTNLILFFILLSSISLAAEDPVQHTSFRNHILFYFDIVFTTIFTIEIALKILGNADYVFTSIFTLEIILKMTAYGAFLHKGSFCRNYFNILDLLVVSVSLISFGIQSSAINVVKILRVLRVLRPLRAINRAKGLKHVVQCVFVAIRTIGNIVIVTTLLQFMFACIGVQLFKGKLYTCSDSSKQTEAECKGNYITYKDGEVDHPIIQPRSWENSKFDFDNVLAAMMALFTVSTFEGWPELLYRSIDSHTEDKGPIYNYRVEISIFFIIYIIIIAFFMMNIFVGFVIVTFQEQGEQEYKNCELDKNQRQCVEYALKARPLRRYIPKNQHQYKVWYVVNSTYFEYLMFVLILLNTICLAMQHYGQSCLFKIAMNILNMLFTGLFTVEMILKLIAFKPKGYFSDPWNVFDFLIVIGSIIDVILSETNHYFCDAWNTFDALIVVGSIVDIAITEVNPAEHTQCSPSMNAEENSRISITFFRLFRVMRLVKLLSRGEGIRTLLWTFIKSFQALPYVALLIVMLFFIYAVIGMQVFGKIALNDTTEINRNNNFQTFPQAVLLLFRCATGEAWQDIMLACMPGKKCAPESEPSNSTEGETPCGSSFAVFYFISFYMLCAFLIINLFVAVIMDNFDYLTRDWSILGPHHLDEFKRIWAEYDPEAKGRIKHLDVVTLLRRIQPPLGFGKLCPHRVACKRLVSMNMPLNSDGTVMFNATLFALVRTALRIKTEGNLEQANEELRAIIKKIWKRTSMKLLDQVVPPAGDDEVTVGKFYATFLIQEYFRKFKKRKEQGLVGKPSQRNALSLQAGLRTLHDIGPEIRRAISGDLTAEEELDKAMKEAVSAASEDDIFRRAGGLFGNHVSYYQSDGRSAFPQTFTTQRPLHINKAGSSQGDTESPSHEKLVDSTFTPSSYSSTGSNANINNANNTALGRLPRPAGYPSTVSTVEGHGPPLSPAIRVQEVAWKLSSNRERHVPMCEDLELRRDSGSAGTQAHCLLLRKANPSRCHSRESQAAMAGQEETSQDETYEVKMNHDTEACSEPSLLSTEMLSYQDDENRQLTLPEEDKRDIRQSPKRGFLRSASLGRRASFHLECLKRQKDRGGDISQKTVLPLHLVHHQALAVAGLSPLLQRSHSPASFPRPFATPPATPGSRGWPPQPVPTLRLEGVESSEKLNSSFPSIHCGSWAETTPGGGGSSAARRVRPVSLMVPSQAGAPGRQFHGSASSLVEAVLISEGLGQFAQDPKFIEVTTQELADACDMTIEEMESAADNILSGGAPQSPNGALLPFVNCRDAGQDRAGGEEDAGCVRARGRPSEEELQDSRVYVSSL
Description: Inhibition of human Cav1.2

Cavia porcellus [30] = experiment: Inhibition of histamine induced bronchoconstriction in male albino Dunkin-Hartley guinea pig model at 3 nmol/kg, IT(Intratracheal) preadministered with compound followed by histamine addition at 5 to 30 mins and measured 1 hrs post compound treatment relative to control; settings: read-out: INH
Cavia porcellus [31] = experiment: Inhibition of acetylcholine induced bronchoconstriction in male albino Dunkin-Hartley guinea pig model at 3 nmol/kg, IT(Intratracheal) preadministered with compound followed by acetylcholine addition at 5 to 30 mins and measured 1 hrs post compound treatment relative to control; settings: read-out: INH
[32] = Protein binding in human plasma at 5 uM incubated for 4 hrs by LC-MS/MS analysis
Cavia porcellus [33] = species: Cavia porcellus; experiment: animal or person; settings: albino Dunkin-Hartley, 1 h, read-out: INH; remark: listed apart in the source
Description: Inhibition of acetylcholine induced bronchoconstriction in male albino Dunkin-Hartley guinea pig model at 3 nmol/kg, IT(Intratracheal) preadministered with compound followed by acetylcholine addition at 5 to 30 mins in presence of ICI-118551 and measured 1 hrs post compound treatment relative to control

Structure (SMILES)	pIC50 [8]	pIC50 [9]	IC50 (Trachea) [nM]	pKi [10]	pKi [11]	hepatocyte CLint at 1.5 h, 1 µM (in vitro [12]) [µL/min/1e6 cells]	hepatocyte CLint at 1.5 h, 1 µM (in vitro [13]) [µL/min/1e6 cells]	half-life at 2 h, 5 µM (in vitro [14]) [h]	half-life at 2 h, 5 µM (in vitro [15]) [h]	half-life at 2 h, 5 µM (in vitro [16]) [h]	half-life at 1 h, 1 µM (in vitro [21]) [h]	half-life at 1 h, 1 µM (in vitro [23]) [h]	half-life at 1 h, 1 µM (in vitro [24]) [h]	also measured
Cn1nc(C(=O)OCCCCNC[C@H](O)c2ccc(O)c3[nH]c(=O)ccc23)cc1COc1cccc([C@@H](NC(=O)O[C@H]2CN3CCC2CC3)c2ccccc2)c1	–	–	–	–	–	–	–	–	–	–	–	–	–	inhibition in vivo at 0.001 µmol/kg (Cavia porcellus [1]): 73%; inhibition in vivo at 0.001 µmol/kg (Cavia porcellus [2]): 93%; inhibition in vivo at 0.001 µmol/kg (Cavia porcellus [3]): 51%; inhibition in vivo at 0.001 µmol/kg (Cavia porcellus [4]): 71%; remaining at 1 h, 1 µM [5]: 98.5%; inhibition in vivo at 0.001 µmol/kg (Cavia porcellus [6]): 84%; inhibition in vivo at 0.001 µmol/kg (Cavia porcellus [7]): 45%
O=C(N[C@@H](c1ccccc1)c1cccc(OCc2cccc(C(=O)NCCCCNC[C@H](O)c3ccc(O)c4[nH]c(=O)ccc34)c2)c1)O[C@H]1CN2CCC1CC2	9.10	9.00	0.794	10.20	10.90	–	–	–	–	–	–	–	–	–
COc1cc(C(=O)NCCCOc2cccc([C@](O)(C(=O)OCC3CCN(CC4CC4)CC3)c3ccccc3)c2)c(F)cc1CNC[C@H](O)c1ccc(O)c2[nH]c(=O)ccc12.O=CO.O=CO	–	–	–	11.00	9.50	9	47	> 2.5	0.25	> 2.5	–	–	–	–
CCN1CCC(COC(=O)[C@](O)(c2ccccc2)c2cccc(OCCCNC(=O)c3cc(OC)c(CNC[C@H](O)c4ccc(O)c5[nH]c(=O)ccc45)cc3F)c2)CC1.O=C(O)C(F)(F)F.O=C(O)C(F)(F)F	8.50	8.50	0.501	10.90	9.30	2	27	> 2.5	0.933	> 2.5	4.67	4.67	4.67	inhibition in vivo at 0.0003 µmol/kg (Cavia porcellus [17]): 85%; inhibition in vivo at 0.0003 µmol/kg (Cavia porcellus [18]): 78%; remaining at 1 h, 1 µM [5]: 96.5%; inhibition in vivo at 0.0003 µmol/kg (Cavia porcellus [19]): 60%; inhibition in vivo at 0.0003 µmol/kg (Cavia porcellus [20]): 62%; hepatocyte CLint at 1.5 h, 1 µM (in vitro [22]): 60 µL/min/1e6 cells; inhibition in vivo at 0.0003 µmol/kg (Cavia porcellus [25]): 61%; inhibition in vivo at 0.0003 µmol/kg (Cavia porcellus [26]): 51%
O=C(NCCCOc1cccc([C@](O)(C(=O)O)c2ccccc2)c1)c1ccc(CNC[C@H](O)c2ccc(O)c3[nH]c(=O)ccc23)cc1	–	–	–	< 7.30	–	–	–	–	–	–	–	–	–	pIC50 [27]: < 3.82; pIC50 [28]: < 3.82; pIC50 [29]: < 3.82
O=C(N[C@@H](c1ccccc1)c1cccc(OCc2ccc(C(=O)NCCCNC[C@H](O)c3ccc(O)c4[nH]c(=O)ccc34)cc2)c1)O[C@@H]1CN2CCC1CC2	9.70	9.80	0.158	10.00	10.90	–	–	–	–	–	–	–	–	–
O=C(NCCCNC[C@H](O)c1ccc(O)c2[nH]c(=O)ccc12)c1ccc(COc2cccc([C@@](O)(C(=O)OCC3CCN(Cc4ccccc4)CC3)c3ccccc3)c2)cc1	8.30	9.70	0.02	8.50	10.50	–	–	–	–	–	–	–	–	–
COc1cc(C(=O)NCCCOc2cccc([C@](O)(C(=O)OCC3CCN(Cc4ccccc4)CC3)c3ccccc3)c2)c(F)cc1CNC[C@H](O)c1ccc(O)c2[nH]c(=O)ccc12	9.10	10.00	–	11.00	9.60	20	33	> 2.5	0.917	0.133	0.433	1.92	1.85	–
COc1cc(C(=O)NCCCOc2cccc([C@](O)(C(=O)OCC3CCN(Cc4ccccc4)CC3)c3ccccc3)c2)ccc1CNC[C@H](O)c1ccc(O)c2[nH]c(=O)ccc12	9.90	10.90	–	10.70	9.40	20	60	> 2.5	0.6	0.1	0.483	4	3.95	–
O=C(NCc1ccc(-c2cccc([C@](O)(C(=O)OCC3CCN(Cc4ccccc4)CC3)c3ccccc3)c2)s1)c1ccc(CNC[C@H](O)c2ccc(O)c3[nH]c(=O)ccc23)cc1	–	–	–	9.60	8.60	12	50	> 2.5	> 2.5	0.217	2.1	1.47	2.1	hepatocyte CLint at 1.5 h, 1 µM (in vitro [22]): 295 µL/min/1e6 cells
O=C(NCCCNC[C@H](O)c1ccc(O)c2[nH]c(=O)ccc12)c1ccc(COc2cccc([C@](O)(C(=O)OCC3CCN(Cc4ccccc4)CC3)c3ccccc3)c2)cc1	9.70	9.70	0.126	9.60	10.70	–	–	–	–	–	–	–	–	–
O=C(c1ccc(CCNC[C@H](O)c2ccc(O)c3[nH]c(=O)ccc23)cc1)N1CCC(c2cccc([C@](O)(C(=O)OCC3CCN(Cc4ccccc4)CC3)c3ccccc3)c2)CC1	8.70	9.20	–	10.20	9.40	13	36	> 2.5	0.533	0.267	1.9	3	2.47	–
O=C(NCCCCNC[C@H](O)c1ccc(O)c2[nH]c(=O)ccc12)c1ccc(CNC2(C(=O)O[C@H]3CN4CCC3CC4)CCc3ccccc32)cc1 (mixture of isomers)	8.50	8.60	1.58	9.90	9.30	–	–	–	–	–	–	–	–	–
O=C(NCCCCNC[C@H](O)c1ccc(O)c2[nH]c(=O)ccc12)c1ccc(CNC2(C(=O)OCC3CCN(Cc4ccccc4)CC3)CCc3ccccc32)s1 (mixture of isomers; 32)	9.00	10.60	0.0501	8.40	10.20	–	–	> 2.5	–	–	–	–	–	hepatocyte CLint at 1.5 h, 1 µM (in vitro [12]; CLH): 13 µL/min/1e6 cells; hepatocyte CLint at 1.5 h, 1 µM (in vitro [13]; CLH): 44 µL/min/1e6 cells; half-life at 1 h, 1 µM (in vitro [23]; t1/2): 1.62 h; half-life at 1 h, 1 µM (in vitro [24]; t1/2): 2.35 h; half-life at 2 h, 5 µM (in vitro [15]; t1/2): 0.5 h
O=C(NCCCCNC[C@H](O)c1ccc(O)c2[nH]c(=O)ccc12)c1ccc(CNC2(C(=O)OCC3CCN(Cc4ccccc4)CC3)CCc3ccccc32)s1 (mixture of isomers; 33)	9.10	10.20	–	8.70	10.50	–	–	–	–	–	–	–	–	inhibition in vivo at 0.003 µmol/kg (Cavia porcellus [30]): 83%; inhibition in vivo at 0.003 µmol/kg (Cavia porcellus [31]): 96%; fraction unbound at 4 h, 5 µM [32]: 0.06; inhibition in vivo at 0.003 µmol/kg (Cavia porcellus [33]): 60%
O=C(c1ccc(OCc2ccc(CNC[C@H](O)c3ccc(O)c4[nH]c(=O)ccc34)cc2)cc1)N1CC(C(=O)OC2CN3CCC2CC3)(c2ccccc2)C1 (single isomer, unassigned)	9.00	9.00	1	9.50	9.20	–	–	–	–	–	–	–	–	–

Source: ChEMBL document CHEMBL5500396, “Discovery, Multiparametric Optimization, and Solid-State Driven Identification of CHF-6550, a Novel Soft Dual Pharmacology Muscarinic Antagonist and β2 Agonist (MABA) for the Inhaled Treatment of Respiratory Diseases” (J Med Chem, 2024)
